The record followed here is paper PMC5154303, “Flavonol and imidazole derivatives block HPV16 E6 activities and reactivate apoptotic pathways in HPV^+ cells” (Cell Death & Disease, 2016).

What all share (assay type): cell-based, human
One assay relates to SCC 84. Put plainly: Sensitization to doxorubicin in HPV− HNSCC line SCC 84 (MTT). The settings on record: HPV− #84, compound 0–12.5 μM, 2 μM doxorubicin. The protocol:
Figure 8 Myricetin and spinacine (5) can re-sensitize HPV^+, but not HPV^−, HNSCC cell lines to treatment with doxorubicin. Two HPV^− (UMMSCC 29 and SCC 84) and three HPV^+ (UMSCC 47, UPCI-SCC90-UP-Clone 35, and UM-SCC47-TC Clone 3) head and neck cancer cell lines (2 × 10^4 cells per well) were seeded into 96-well plates and allowed to incubate overnight, and then cells were pretreated with myricetin or spinacine (0–12.5 μM) for 4 h. In all, 2 μM of doxorubicin was added, and the cells were allowed to incubate overnight. Cell viability was measured by MTT assay, and the viability of cells untreated with small molecules was set at 100%. Experiments were performed in triplicate, and error bars indicate the S.D.
The extracellular domain of human TRAIL was cloned into a pTriEx expression plasmid containing N-terminal Hisx6 tag. His-TRAIL was expressed in the E. coli BL-21 pLys strain and purified as previously described. Doxorubicin and cisplatin were purchased from Sigma. His-TRAIL, doxorubicin, and cisplatin were diluted in PBS to the desired concentration before using. […] All experiments were repeated at least three times (three biological replicates, carried out on different days), with each experimental group measured in triplicate within each of these individual experiments. […]

For assay [1], the system named is p53. Put plainly: p53 ELISA in C33A cells. As to conditions: C33A cells (HPV−, mutant p53), with 4 μg/ml mitomycin C, 24 h. The protocol:
(§1) Figure 6 Treatment with myricetin and spinacine (5) increases cellular levels of caspase 8 and p53. (a) SiHa cells (1 × 10^6 per well) were seeded into a six-well plate and allowed to incubate overnight. The indicated concentrations of myricetin and spinacine were added, and then cells were incubated for 24 h. Cells were then washed in 1 × PBS and then harvested, and the resulting level of caspase 8 was measured by immunoblot. (b) SiHa and C33A cells (1 × 10^6 per well) were seeded into a six-well plate and allowed to incubate overnight. In all, 200 μM of myricetin and 100 μM spinacine were added together with 4 μg/ml mitomycin C and incubated for 24 h. The resulting level of p53 was measured by enzyme-linked immunosorbent assay, and the level of p53 found in untreated cells was set at 100%. Experiments were performed in triplicate, and error bars indicate the S.D.
(§2) The p53 ELISA was performed as described previously,[26] with some modifications. Antibodies secreted by clone pAb122 (hybridoma obtained from ATCC, antibodies purified from the culture medium using protein-A Sepharose) were used as monoclonal capture antibodies. […] The average and S.D. of the replicates (a minimum of three) were calculated, normalized to the control, and used to prepare the graph.
A general note: In an ELISA, binding on a coated surface is turned into a signal by an enzyme label.

The test system of assay [2] is p53. Nature of the assay: p53 ELISA in SiHa cells. The settings on record: with 4 μg/ml mitomycin C, 24 h. The protocol:
as §1, §2

Regarding `O=c1c(O)c(-c2cc(O)c(O)c(O)c2)oc2cc(O)cc(O)c12` [Myricetin, myricetin, reference compound], the “response to doxorubicin in presence and absence of compound” value in the assay with SCC 84 is given as “resistant”. In addition, in the assay on p53 [1] (200 μM), the “change in p53 levels” value is listed as “no significant change”. For the same compound, the “increase in p53 compared with untreated cells” value in the assay with p53 [2] (200 μM) was 4.4 fold.
In the case of `O=C(O)C1Cc2[nH]cnc2CN1` (stereo not drawn) [Spinacine (5), 4,5,6,7-tetrahydro-1H-imidazo[4,5–c]pyridine-6-carboxylic acid], the “response to doxorubicin in presence and absence of compound” value in the assay on SCC 84 is reported as “resistant”. Also, the “change in p53 levels” value with p53 [1] (100 μM) is “no significant change”. Besides, the “increase in p53 compared with untreated cells” value in the assay on p53 [2] (100 μM) is given as 3.4 fold.
